Data on 17 compounds can be found in patent US5461036A, “Spicamycin derivatives and their use as anticancer agents” (priority 1991, dated 1995).

Like-named read-outs stand apart in the source and are kept apart here.

In data set [1] the test system is human colon cancer (COL-1). In kind it is in vivo, mouse. To be noted: for TGIR (tumor growth inhibition rate, maximum) / minTx (relative tumor volume when reduced to the minimum): COL-1 s.c. in nude mice, at MTD; for TGIR (tumor growth inhibition rate, maximum): TGIR=(1-Tx/Cx)×100, maximum during about 3 weeks; for minTx (relative tumor volume when reduced to the minimum): minimum throughout the test period. The protocol:
(2) Method for measuring the antitumor effect on human colon cancer (COL-1)
COL-1, a human colon cancer, was transplanted subcutaneously into nude mice. When the tumor had grown to a volume of about 100 mm^3, the nude mice were divided into groups of 5 animals so that the average tumor volumes of respective groups were equalized. The respective spicamycin derivatives were administered to test groups at their MTDs, while physiological saline (solvent) containing 1% DMSO and 1% Cremophor EL® was administered to the control group. […] RV is expressed as RV =Vn/Vo where Vn is the tumor volume on day n and Vo is the initial tumor volume at the time treatment was commenced.

The nature of data set [2]: in vivo. Set-up: species or system nude mice (BALB/c nu/nu). To be noted: mouse, in vivo; intravenous, continuous 5 days, nude mice; maximum dose at which no animal was dead within 2 weeks; read-out: Maximum tolerated dose. The procedure: (1) Measurement of maximum tolerated dose (MTD) of the spicamycin derivatives in nude mice
The spicamycin derivative was dissolved in dimethylsulfoxide (DMSO) and Cremophor EL® at the same volume as DMSO was added. Physiological saline was added so that the concentration of DMSO and Cremophor EL® was finally adjusted to 1%, respectively, and thus injection liquids of spicamycin derivative in a variety of concentrations were prepared. […] The maximum dose at which no animal was dead was defined as the MTD of the respective derivatives.

Where [3] appears, read: /minimum effective dose (effective: TGIR≥50).

As to `N#CCCCCCCCCCCCCCCCC(=O)NCC(=O)NC1C(O)C(O)C(Nc2ncnc3[nH]cnc23)OC1C(O)CO` (stereo not shown) [SPK177, 6-[4'-N-(N'-16-cyanohexadecanoylglycyl)-spicaminyl-amino]purine], the “TGIR (tumor growth inhibition rate, maximum)” value in data set [1] is 99. This compound displayed a Therapeutic index in data set [1] (mouse, in vivo) of 4. Also, the MTD at 336 h in data set [2] is 13.5 mg/kg/day.

Take `O=C(CCCCCCCCC#Cc1ccsc1)NCC(=O)NC1C(O)C(O)C(Nc2ncnc3[nH]cnc23)OC1C(O)CO` (stereo not shown) [SPK263, 6-{4,-N-[N'-11-(3'-thienyl)-10-undecynoylglycyl]spicaminyl-amino}purine]: in data set [1], the “TGIR (tumor growth inhibition rate, maximum)” value came out at 97 and the “minTx (relative tumor volume when reduced to the minimum)” value worked out at 0.09. The compound further displayed a Therapeutic index in data set [1] (mouse, in vivo) of 8. In addition, the MTD at 336 h in data set [2] came to 12 mg/kg/day.

On to `CC(C)CCCCCCCCCCC(=O)NCC(=O)N[C@@H]1[C@@H](O)[C@@H](O)[C@@H](Nc2ncnc3[nH]cnc23)O[C@H]1C(O)CO` (stereo partly shown) [SPK136, 6-[4'-N-(N'-12-methyltridecanoylglycyl)spicaminyl-amino]purine], for which the Therapeutic index in data set [1] (setting [3]) worked out at 4. Besides, the “TGIR (tumor growth inhibition rate, maximum)” value in data set [1] was determined as 84. For the same compound, the MTD at 336 h in data set [2] is 2 mg/kg/day.

Take `O=C(CCCCCCCCCCCCCBr)NCC(=O)N[C@@H]1[C@@H](O)[C@@H](O)[C@@H](Nc2ncnc3[nH]cnc23)O[C@H]1C(O)CO` (stereo partly shown) [SPK273, 6-[4'-N-(N'-14-bromotetradecanoylglycyl)spicaminyl-amino]purine]: in data set [1], the “TGIR (tumor growth inhibition rate, maximum)” value came to 98 and the “minTx (relative tumor volume when reduced to the minimum)” value stood at 0.11. In addition, in data set [1] (mouse, in vivo), the Therapeutic index is 8. In addition, in data set [2], the MTD at 336 h was 12 mg/kg/day.

`CCCCCCCCC/C=C/C=C/C(=O)NCC(=O)NC1C(O)C(O)C(Nc2ncnc3[nH]cnc23)OC1C(O)CO` (stereo not drawn) [SPT241, 6-[4 -N-(N'-trans,trans-2,4-tetradecadienylglycyl)-septaminyl-amino]purine]: in data set [1], the “TGIR (tumor growth inhibition rate, maximum)” value turned out to be 93 and the “minTx (relative tumor volume when reduced to the minimum)” value amounted to 0.24. The compound also had a Therapeutic index in data set [1] (mouse, in vivo) of 8. Also, the MTD at 336 h in data set [2] was 3 mg/kg/day.

For `O=C(CCCCCCCCCCCCCCCF)NCC(=O)NC1C(O)C(O)C(Nc2ncnc3[nH]cnc23)OC1C(O)CO` (stereo not shown) [SPK157, 6-[4,-N-(N'-16-fluorohexadecanoylglycyl)spicaminyl-amino]purine], the Therapeutic index in data set [1] (setting [3]) was found to be 4. In data set [1], the “TGIR (tumor growth inhibition rate, maximum)” value came to 98 and the “minTx (relative tumor volume when reduced to the minimum)” value is given as 0.11. The MTD at 336 h in data set [2] was found to be 1.6 mg/kg/day.

Turning to `O=C(CCCCCCCCCCCCCCF)NCC(=O)NC1C(O)C(O)C(Nc2ncnc3[nH]cnc23)OC1C(O)CO` (stereo not shown) [SPK247, 6-[4,-N-(N'-15-fluoropentadecanoylglycyl)spicaminyl-amino]purine], in data set [1], the “TGIR (tumor growth inhibition rate, maximum)” value stood at 96 and the “minTx (relative tumor volume when reduced to the minimum)” value is 0.16. In data set [1] (mouse, in vivo), this compound returned a Therapeutic index of 8. Further, in data set [2], the MTD at 336 h was found to be 6 mg/kg/day.

On to `O=C(CCCCCCCCCCBr)NCC(=O)N[C@@H]1[C@@H](O)[C@@H](O)[C@@H](Nc2ncnc3[nH]cnc23)O[C@H]1C(O)CO` (stereo partly shown) [SPK64, 6-[4'-N-(N'-11-bromoundecanoylglycyl)spicaminyl-amino]purine], for which, in data set [1], the “TGIR (tumor growth inhibition rate, maximum)” value was 95. In data set [1] (mouse, in vivo), the Therapeutic index amounted to 4. Besides, the MTD at 336 h in data set [2] is 18 mg/kg/day.

As to `CCCCCCCCCCCCCC(CC(=O)NCC(=O)NC1C(O)C(O)C(Nc2ncnc3[nH]cnc23)OC1C(O)CO)OC(C)=O` (stereo not shown) [SPK189, 6-[4'-N-(N'-3-acetoxyhexadecanoylglycyl)-spicaminyl-amino]purine], in data set [1], the “TGIR (tumor growth inhibition rate, maximum)” value is listed as 98 and the “minTx (relative tumor volume when reduced to the minimum)” value was 0.09. In data set [1] (mouse, in vivo), this compound yielded a Therapeutic index of 4. Further, the MTD at 336 h in data set [2] is 6 mg/kg/day.

Take `O=C(CCCCCCCCCCCOc1ccccc1)NCC(=O)NC1C(O)C(O)C(Nc2ncnc3[nH]cnc23)OC1C(O)CO` (stereo not shown) [SPK249, 6-[4'-N-(N'-12-phenoxydodecanoylglycyl)-spicaminyl-amino]purine]: in data set [1], the “TGIR (tumor growth inhibition rate, maximum)” value is recorded as 88 and the “minTx (relative tumor volume when reduced to the minimum)” value is 0.26. The compound further gave a Therapeutic index in data set [1] (mouse, in vivo) of 4. In addition, the MTD at 336 h in data set [2] turned out to be 3 mg/kg/day.

In data set [1] (setting [3]), `CCCCCCCCCCCCCCC(O)C(=O)NCC(=O)NC1C(O)C(O)C(Nc2ncnc3[nH]cnc23)OC1C(O)CO` (stereo not shown) [SPK112, 6-[4'-N-(N'-2-hydroxyhexadecanoylglycyl)spicaminyl-amino]purine] had a Therapeutic index of 4. The “TGIR (tumor growth inhibition rate, maximum)” value in data set [1] is 82. Besides, the MTD at 336 h in data set [2] amounted to 0.85 mg/kg/day.

Take `CCCCCCC/C=C/C=C/C(=O)NCC(=O)N[C@@H]1[C@@H](O)[C@@H](O)[C@@H](Nc2ncnc3[nH]cnc23)O[C@H]1C(O)CO` (stereo partly drawn) [SPK282, 6-[4'-N-(N'-trans,trans-2,4-dodecadienoylglycyl)spicaminyl-amino]purine]: in data set [1], the “TGIR (tumor growth inhibition rate, maximum)” value was found to be 99 and the “minTx (relative tumor volume when reduced to the minimum)” value was determined as 0.07. Moreover, in data set [1] (mouse, in vivo), the Therapeutic index was found to be 16. In addition, in data set [2], the MTD at 336 h stood at 36 mg/kg/day.

In data set [1] (setting [3]), `CCCCCCCCCCCCCC[C@H](O)C(=O)NCC(=O)NC1C(O)C(O)C(Nc2ncnc3[nH]cnc23)OC1C(O)CO` (stereo partly drawn) [SPK271, 6-[4'-N-(N'-(S)-2-hydroxyhexadecanoylglycyl)spicaminyl-amino]purine] returned a Therapeutic index of 8. Further, in data set [1], the “TGIR (tumor growth inhibition rate, maximum)” value is 99 and the “minTx (relative tumor volume when reduced to the minimum)” value turned out to be 0.09. The MTD at 336 h in data set [2] stood at 2 mg/kg/day.

As to `CCCCCC/C=C\CCCCCCCC(=O)NCC(=O)N[C@@H]1[C@@H](O)[C@@H](O)[C@@H](Nc2ncnc3[nH]cnc23)O[C@H]1C(O)CO` (stereo partly drawn) [SPK148, 6-[4,-N-(N'-cis-9-hexadecenoylglycyl)spicaminyl-amino]purine], the Therapeutic index in data set [1] (setting [3]) turned out to be 4. In data set [1], the “TGIR (tumor growth inhibition rate, maximum)” value came to 94 and the “minTx (relative tumor volume when reduced to the minimum)” value was 0.21. The MTD at 336 h in data set [2] was 3.4 mg/kg/day.

Consider `O=C(CCCCCCCCCCCBr)NCC(=O)N[C@@H]1[C@@H](O)[C@@H](O)[C@@H](Nc2ncnc3[nH]cnc23)O[C@H]1C(O)CO` (stereo partly shown) [SPK152, 6-[4'-N-(N'-12-bromododecanoylglycyl)spicaminyl-amino]purine], for which, in data set [1], the “TGIR (tumor growth inhibition rate, maximum)” value came to 100 and the “minTx (relative tumor volume when reduced to the minimum)” value was 0.03. Moreover, the Therapeutic index in data set [1] (mouse, in vivo) stood at 8. The MTD at 336 h in data set [2] was 36 mg/kg/day.

Consider `CCCCCCCCC/C=C/C(=O)NCC(=O)N[C@@H]1[C@@H](O)[C@@H](O)[C@@H](Nc2ncnc3[nH]cnc23)O[C@H]1C(O)CO` (stereo partly drawn) [SPK86, 6-[4'-N-(N'-trans-2-dodecenoylglycyl)spicaminyl-amino]purine], for which, in data set [1], the “TGIR (tumor growth inhibition rate, maximum)” value was found to be 86. The MTD at 336 h in data set [2] is 18 mg/kg/day.

`CC(C)CCCCCCCCCC(=O)NCC(=O)N[C@@H]1[C@@H](O)[C@@H](O)[C@@H](Nc2ncnc3[nH]cnc23)O[C@H]1C(O)CO` (stereo partly shown) [SPK251, 6-[4'-N-(N'-11-methyldodecanoylglycyl)spicaminyl-amino]purine]: the “TGIR (tumor growth inhibition rate, maximum)” value in data set [1] was determined as 97. In data set [1] (mouse, in vivo), this compound came in with a Therapeutic index of 8. Also, in data set [2], the MTD at 336 h came out at 6 mg/kg/day.
